26 molecules from patent US8106055B2, “Substituted amide compounds” (Gruenenthal GmbH, priority 2007, dated 2012) can be followed below.

For experiment [1], the target named is T1, human bradykinin 1 receptor (B1R) (Homo sapiens, UniProt P46663).
T1 construct: expressed in transfected cells; host or cells: CHO K1 cells
T1 sequence (P46663 1-353): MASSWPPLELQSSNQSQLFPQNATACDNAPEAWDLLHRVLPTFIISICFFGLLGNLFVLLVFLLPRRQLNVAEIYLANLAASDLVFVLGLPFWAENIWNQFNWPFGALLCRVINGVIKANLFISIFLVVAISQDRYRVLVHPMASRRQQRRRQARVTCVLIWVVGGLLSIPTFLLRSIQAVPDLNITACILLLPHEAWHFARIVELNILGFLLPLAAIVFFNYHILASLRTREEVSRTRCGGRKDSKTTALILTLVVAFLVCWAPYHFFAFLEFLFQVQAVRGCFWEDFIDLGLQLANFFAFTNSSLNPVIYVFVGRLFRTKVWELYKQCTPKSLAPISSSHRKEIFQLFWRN
The experiment can be described thus: Functional investigation on the human bradykinin 1 receptor (B1R), Ca2+ FLIPR assay in CHO K1 hB1R cells. Type of experiment: cell-based. As to conditions: B1R antagonism human; test substance 10 μM; Ca2+ FLIPR, CHO K1 hB1R cells. In short, it runs like this: (§1)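 Stably transfected CHO K1 cells loaded with Fluo-4; FLIPR Ca2+ fluorescence peak (ex 488/em 540 nm). Compound added first (agonism vs Lys-Des-Arg9-bradykinin ≥50 nM human, Des-Arg9-bradykinin 10 μM rat), then after 10-20 min agonist at EC80; antagonism as % inhibition, IC50 from concentration series, n=2-3, N≥2.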

For experiment [2], the target named is T2, bradykinin 1 receptor (B1R) of the rat (Rattus norvegicus, UniProt P97583).
T2 construct: expressed in transfected cells; host or cells: CHO K1 cells
T2 sequence (P97583 1-337): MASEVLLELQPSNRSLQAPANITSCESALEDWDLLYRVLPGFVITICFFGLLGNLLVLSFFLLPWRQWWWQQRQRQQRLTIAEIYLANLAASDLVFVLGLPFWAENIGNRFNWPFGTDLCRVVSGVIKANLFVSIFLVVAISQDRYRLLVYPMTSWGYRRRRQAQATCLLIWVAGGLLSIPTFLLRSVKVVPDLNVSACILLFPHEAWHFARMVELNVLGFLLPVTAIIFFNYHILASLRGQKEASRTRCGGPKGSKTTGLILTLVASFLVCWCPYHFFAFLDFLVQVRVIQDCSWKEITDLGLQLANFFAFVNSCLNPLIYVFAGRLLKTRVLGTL
The experiment can be described thus: Functional investigation on the rat bradykinin 1 receptor (B1R), Ca2+ FLIPR assay in CHO K1 rB1R cells. Type of experiment: cell-based. The conditions noted are these: B1R antagonism rat; test substance 10 μM; Ca2+ FLIPR, CHO K1 rB1R cells. In short, it runs like this: as §1

SMILES strings stand for the structures.

Regarding `COc1ccc(S(=O)(=O)N2CCCCC2COCC(=O)NCCC2CCC(C(c3ccc(Cl)cc3)N(C)C)CC2)cc1OC` (stereo not shown) [Example 540], the “B1R Ant. h [10 μM] % Inhibition” value in experiment [1] is reported as −19%. In experiment [2], the “B1R Ant. r [10 μM] % Inhibition” value came out at 19%.

In the case of `Cc1ccc(S(=O)(=O)N(C)CCOCC(=O)NCC2CCC(C(CCc3ccccc3)N(C)C)CC2)cc1` (stereo not shown) [Example 452], the “B1R Ant. h [10 μM] % Inhibition” value in experiment [1] was 37%. The “B1R Ant. r [10 μM] % Inhibition” value in experiment [2] stood at 18%.

With `CN(C)C(c1ccc(Cl)cc1)C1CCC(CNC(=O)COC2CCN(S(=O)(=O)c3ccccc3)CC2)CC1` (stereo not shown) [Example 471], the “B1R Ant. h [10 μM] % Inhibition” value in experiment [1] came to 7%. Further, in experiment [2], the “B1R Ant. r [10 μM] % Inhibition” value came out at 15%.

Consider `COc1cc(C)c(S(=O)(=O)N2CCC(CCOCC(=O)NCC3CCC(C(c4ccc(Cl)cc4)N(C)C)CC3)CC2)c(C)c1C` (stereo not shown) [Example 499], for which the “B1R Ant. h [10 μM] % Inhibition” value in experiment [1] worked out at 25%. Moreover, the “B1R Ant. r [10 μM] % Inhibition” value in experiment [2] is −10%.

Turning to `CN(C)C(c1ccc(F)cc1)C1CCC(CCNC(=O)COCCC2CCN(S(=O)(=O)c3ccccc3)CC2)CC1` (stereo not shown) [Example 470], the “B1R Ant. h [10 μM] % Inhibition” value in experiment [1] was 4%. Also, the “B1R Ant. r [10 μM] % Inhibition” value in experiment [2] is 23%.

For `COc1cc(C)c(S(=O)(=O)N(CCOCC(=O)NCC2CCC(C(c3ccc(F)cc3)N(C)C)CC2)Cc2ccccc2)c(C)c1` (stereo not shown) [Example 494], in experiment [1], the “B1R Ant. h [10 μM] % Inhibition” value was found to be 86%. The “B1R Ant. r [10 μM] % Inhibition” value in experiment [2] was 36%.

Take `Cc1ccc(S(=O)(=O)N(C)CCOCC(=O)NCCC2CCC(C(c3ccc(F)cc3)N(C)C)CC2)cc1` (stereo not shown) [Example 457]: the “B1R Ant. h [10 μM] % Inhibition” value in experiment [1] was 14%. The “B1R Ant. r [10 μM] % Inhibition” value in experiment [2] is recorded as 11%.

Take `COc1ccc(S(=O)(=O)N2CCCCC2COCC(=O)NCCC2CCC(C(c3ccc(Cl)cc3)N(C)C)CC2)c(OC)c1` (stereo not shown) [Example 474]: the “B1R Ant. h [10 μM] % Inhibition” value in experiment [1] was 17%. In addition, in experiment [2], the “B1R Ant. r [10 μM] % Inhibition” value stood at 10%.

Regarding `COc1cc(C)c(S(=O)(=O)N2CCC(OCC(=O)NCCC3CCC(C(c4ccc(F)cc4)N(C)C)CC3)C2)c(C)c1` (stereo not shown) [Example 509], in experiment [1], the “B1R Ant. h [10 μM] % Inhibition” value came to 104%. In experiment [2], the “B1R Ant. r [10 μM] % Inhibition” value turned out to be 94%.

For `COc1cc(C)c(S(=O)(=O)N(CCOCC(=O)NC2CCC(C(c3ccc(F)cc3)N(C)C)CC2)Cc2ccccc2)c(C)c1` (stereo not shown) [Example 504], the “B1R Ant. h [10 μM] % Inhibition” value in experiment [1] amounted to 69%. Further, the “B1R Ant. r [10 μM] % Inhibition” value in experiment [2] amounted to 48%.

As to `CN(C)C(c1ccc(F)cc1)C1CCC(CCNC(=O)COC2CCN(S(=O)(=O)c3ccccc3)C2)CC1` (stereo not shown) [Example 530], the “B1R Ant. h [10 μM] % Inhibition” value in experiment [1] was −18%. Moreover, in experiment [2], the “B1R Ant. r [10 μM] % Inhibition” value is given as 27%.

Consider `CN(C)C(c1ccc(F)cc1)C1CCC(CCNC(=O)COC2CCN(S(=O)(=O)c3ccc(Cl)cc3Cl)C2)CC1` (stereo not shown) [Example 456], for which the “B1R Ant. h [10 μM] % Inhibition” value in experiment [1] came out at 80%. The “B1R Ant. r [10 μM] % Inhibition” value in experiment [2] turned out to be 48%.

On to `CN(C)C(CCc1ccccc1)C1CCC(CNC(=O)COCCN2CCN(S(=O)(=O)c3ccccc3)CC2)CC1` (stereo not shown) [Example 526], for which the “B1R Ant. h [10 μM] % Inhibition” value in experiment [1] is on record as 10%. In addition, in experiment [2], the “B1R Ant. r [10 μM] % Inhibition” value is listed as −30%.

With `CN(C)C(c1ccc(F)cc1)C1CCC(CCNC(=O)COC2CCN(S(=O)(=O)c3ccc(F)cc3)C2)CC1` (stereo not shown) [Example 518], the “B1R Ant. h [10 μM] % Inhibition” value in experiment [1] was −2%. Besides, the “B1R Ant. r [10 μM] % Inhibition” value in experiment [2] is recorded as 26%.

Consider `CN(C)C(c1ccc(F)cc1)C1CCC(NC(=O)COCCN2CCN(S(=O)(=O)c3ccccc3)CC2)CC1` (stereo not shown) [Example 502], for which, in experiment [1], the “B1R Ant. h [10 μM] % Inhibition” value is −3%. In experiment [2], the “B1R Ant. r [10 μM] % Inhibition” value was 21%.

Turning to `Cc1ccc(S(=O)(=O)N2CCC(OCC(=O)NCC3CCC(C(CCc4ccccc4)N(C)C)CC3)C2)cc1` (stereo not shown) [Example 538], the “B1R Ant. h [10 μM] % Inhibition” value in experiment [1] is 7%. In addition, the “B1R Ant. r [10 μM] % Inhibition” value in experiment [2] is listed as 5%.

For the molecule `COc1cc(C)c(S(=O)(=O)N(CCOCC(=O)NC2CCC(C(c3ccc(F)cc3)N(C)C)CC2)Cc2ccccc2)c(C)c1C` (stereo not shown) [Example 523], the “B1R Ant. h [10 μM] % Inhibition” value in experiment [1] worked out at 50%. Also, the “B1R Ant. r [10 μM] % Inhibition” value in experiment [2] worked out at 26%.

On to `COc1cc(C)c(S(=O)(=O)N2CCC(OCC(=O)NCCC3CCC(C(c4ccc(Cl)cc4)N(C)C)CC3)C2)c(C)c1` (stereo not shown) [Example 492], for which the “B1R Ant. h [10 μM] % Inhibition” value in experiment [1] stood at 105%. The “B1R Ant. r [10 μM] % Inhibition” value in experiment [2] worked out at 78%.

Turning to `COc1cc(C)c(S(=O)(=O)N2CCC(CCOCC(=O)NCCC3CCC(C(c4ccc(F)cc4)N(C)C)CC3)CC2)c(C)c1C` (stereo not shown) [Example 510], the “B1R Ant. h [10 μM] % Inhibition” value in experiment [1] is listed as 15%. The “B1R Ant. r [10 μM] % Inhibition” value in experiment [2] is 27%.

Consider `COc1ccc(S(=O)(=O)N(C)CCOCC(=O)NCCC2CCC(C(c3ccc(F)cc3)N(C)C)CC2)cc1` (stereo not shown) [Example 519], for which, in experiment [1], the “B1R Ant. h [10 μM] % Inhibition” value was determined as 38%. Besides, in experiment [2], the “B1R Ant. r [10 μM] % Inhibition” value is reported as 44%.

Consider `CN(C)C(c1ccc(F)cc1)C1CCC(CNC(=O)COC2CCN(S(=O)(=O)c3ccccc3)C2)CC1` (stereo not shown) [Example 532], for which, in experiment [1], the “B1R Ant. h [10 μM] % Inhibition” value was 5%. Further, the “B1R Ant. r [10 μM] % Inhibition” value in experiment [2] is on record as −14%.

As to `COc1cc(C)c(S(=O)(=O)N(C)CCOCC(=O)NCC2CCC(C(CCc3ccccc3)N(C)C)CC2)c(C)c1` (stereo not shown) [Example 525], in experiment [1], the “B1R Ant. h [10 μM] % Inhibition” value was 99%. For the same molecule, in experiment [2], the “B1R Ant. r [10 μM] % Inhibition” value came to 93%.

Regarding `CN(C)C(c1ccc(F)cc1)C1CCC(CNC(=O)COC2CCN(S(=O)(=O)c3ccc(Cl)cc3)C2)CC1` (stereo not shown) [Example 517], the “B1R Ant. h [10 μM] % Inhibition” value in experiment [1] was −13%. Besides, the “B1R Ant. r [10 μM] % Inhibition” value in experiment [2] turned out to be 38%.

With `COc1ccc(S(=O)(=O)N2CCC(OCC(=O)NC3CCC(C(c4ccc(F)cc4)N(C)C)CC3)C2)cc1OC` (stereo not shown) [Example 512], in experiment [1], the “B1R Ant. h [10 μM] % Inhibition” value is −4%. Besides, the “B1R Ant. r [10 μM] % Inhibition” value in experiment [2] is 38%.

Take `COc1ccc(S(=O)(=O)N(C)CCOCC(=O)NCC2CCC(C(c3ccc(F)cc3)N(C)C)CC2)cc1` (stereo not shown) [Example 508]: the “B1R Ant. h [10 μM] % Inhibition” value in experiment [1] was found to be 46%. Also, the “B1R Ant. r [10 μM] % Inhibition” value in experiment [2] came out at 42%.

`CN(C)C(c1ccc(F)cc1)C1CCC(CCNC(=O)COCCN2CCN(S(=O)(=O)c3ccccc3)CC2)CC1` (stereo not shown) [Example 493]: the “B1R Ant. h [10 μM] % Inhibition” value in experiment [1] was −13%. The “B1R Ant. r [10 μM] % Inhibition” value in experiment [2] was found to be 4%.
